Data reported in the supplement of paper PMC11451515.

Key:
Conditions in all cases: 48 h
NOMO1 [1] = experiment: cell viability relative to DMSO control; higher = less cytotoxic
Procedure, shortened: (§1)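 Before seeding, each leukemia line was adapted for at least four passages in each medium. NOMO1 or SEM cells (500 cells/well) and P12-Ichikawa cells (1000 cells/well) went into 1536-well plates at 5 μl, then received library compounds in DMSO by pin dosing across 11 threefold concentrations, 47 μM to 0.79 nM. Readout was CellTiter-Glo One luminescence after 48 h at 37°C, and viability is given as a per-plate percentage of DMSO wells, with cell-free wells as background.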

P12-Ichikawa [2] = experiment: as above
Procedure, shortened: as §1

SEM cells [3] = experiment: as above
Procedure, shortened: as §1

NOMO1 [4] = experiment: AUC of viability dose-response curve (% viability x log10 dose units); higher = less sensitive
Procedure, shortened: (§2)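 In 1536-well plates, leukemia cells adapted to each medium (500 or 1000 cells/well) were exposed for 48 h at 37°C to library compounds in DMSO across 11 threefold doses, 47 μM down to 0.79 nM. Viability was read by CellTiter-Glo One luminescence and normalised per plate to DMSO and cell-free wells. A four-parameter log-logistic fit over log10 doses was integrated by trapezoidal rule. This yielded the area under the curve, with over-full-viability curves scaled and quality-control failures dropped.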

P12-Ichikawa [5] = experiment: as above
Procedure, shortened: as §2

SEM cells [6] = experiment: as above
Procedure, shortened: as §2

[7] = HPLM + 10% dialyzed FBS, 0.000781 µM
[8] = HPLM + 10% dialyzed FBS, 0.00234 µM
[9] = HPLM + 10% dialyzed FBS, 0.00702 µM
[10] = HPLM + 10% dialyzed FBS, 0.0211 µM
[11] = HPLM + 10% dialyzed FBS, 0.0632 µM
[12] = HPLM + 10% dialyzed FBS, 0.19 µM
[13] = HPLM + 10% dialyzed FBS, 0.569 µM
[14] = HPLM + 10% dialyzed FBS, 1.71 µM
[15] = HPLM + 10% dialyzed FBS, 5.12 µM
[16] = HPLM + 10% dialyzed FBS, 15.4 µM
[17] = HPLM + 10% dialyzed FBS, 46.1 µM
[18] = RPMI 5 mM glucose + 10% FBS, 0.000781 µM
[19] = RPMI 5 mM glucose + 10% FBS, 0.00234 µM
[20] = RPMI 5 mM glucose + 10% FBS, 0.00702 µM
[21] = RPMI 5 mM glucose + 10% FBS, 0.0211 µM
[22] = RPMI 5 mM glucose + 10% FBS, 0.0632 µM
[23] = RPMI 5 mM glucose + 10% FBS, 0.19 µM
[24] = RPMI 5 mM glucose + 10% FBS, 0.569 µM
[25] = RPMI 5 mM glucose + 10% FBS, 1.71 µM
[26] = RPMI 5 mM glucose + 10% FBS, 5.12 µM
[27] = RPMI 5 mM glucose + 10% FBS, 15.4 µM
[28] = RPMI 5 mM glucose + 10% FBS, 46.1 µM
[29] = RPMI 5 mM glucose + 10% dialyzed FBS, 0.000781 µM
[30] = RPMI 5 mM glucose + 10% dialyzed FBS, 0.00234 µM
[31] = RPMI 5 mM glucose + 10% dialyzed FBS, 0.00702 µM
[32] = RPMI 5 mM glucose + 10% dialyzed FBS, 0.0211 µM
[33] = RPMI 5 mM glucose + 10% dialyzed FBS, 0.0632 µM
[34] = RPMI 5 mM glucose + 10% dialyzed FBS, 0.19 µM
[35] = RPMI 5 mM glucose + 10% dialyzed FBS, 0.569 µM
[36] = RPMI 5 mM glucose + 10% dialyzed FBS, 1.71 µM
[37] = RPMI 5 mM glucose + 10% dialyzed FBS, 5.12 µM
[38] = RPMI 5 mM glucose + 10% dialyzed FBS, 15.4 µM
[39] = RPMI 5 mM glucose + 10% dialyzed FBS, 46.1 µM
[40] = RPMI 5 mM glucose + 10% dialyzed FBS

NC\1=N\C(=O)N(\C=N1)[C@H]2C[C@H](O)[C@@H](CO)O2
cell viability (NOMO1 [1]; [7]): 110%
cell viability (NOMO1 [1]; [8]): 138%
cell viability (NOMO1 [1]; [9]): 101%
cell viability (NOMO1 [1]; [10]): 115%
cell viability (NOMO1 [1]; [11]): 101%
cell viability (NOMO1 [1]; [12]): 107%
cell viability (NOMO1 [1]; [13]): 91.4%
cell viability (NOMO1 [1]; [14]): 82.4%
cell viability (NOMO1 [1]; [15]): 60.2%
cell viability (NOMO1 [1]; [16]): 46.5%
cell viability (NOMO1 [1]; [17]): 43.6%
cell viability (NOMO1 [1]; [18]): 91.8%
cell viability (NOMO1 [1]; [19]): 106%
cell viability (NOMO1 [1]; [20]): 89.6%
cell viability (NOMO1 [1]; [21]): 92.8%
cell viability (NOMO1 [1]; [22]): 93.4%
cell viability (NOMO1 [1]; [23]): 93.7%
cell viability (NOMO1 [1]; [24]): 98.9%
cell viability (NOMO1 [1]; [25]): 85.4%
cell viability (NOMO1 [1]; [26]): 71.1%
cell viability (NOMO1 [1]; [27]): 51.8%
cell viability (NOMO1 [1]; [28]): 31.5%
cell viability (NOMO1 [1]; [29]): 109%
cell viability (NOMO1 [1]; [30]): 122%
cell viability (NOMO1 [1]; [31]): 107%
cell viability (NOMO1 [1]; [32]): 112%
cell viability (NOMO1 [1]; [33]): 98.6%
cell viability (NOMO1 [1]; [34]): 109%
cell viability (NOMO1 [1]; [35]): 114%
cell viability (NOMO1 [1]; [36]): 96.7%
cell viability (NOMO1 [1]; [37]): 76.5%
cell viability (NOMO1 [1]; [38]): 65.9%
cell viability (NOMO1 [1]; [39]): 36.1%
cell viability (P12-Ichikawa [2]; [7]): 101%
cell viability (P12-Ichikawa [2]; [8]): 103%
cell viability (P12-Ichikawa [2]; [9]): 106%
cell viability (P12-Ichikawa [2]; [10]): 108%
cell viability (P12-Ichikawa [2]; [11]): 115%
cell viability (P12-Ichikawa [2]; [12]): 108%
cell viability (P12-Ichikawa [2]; [13]): 101%
cell viability (P12-Ichikawa [2]; [14]): 74.1%
cell viability (P12-Ichikawa [2]; [15]): 42%
cell viability (P12-Ichikawa [2]; [16]): 34.9%
cell viability (P12-Ichikawa [2]; [17]): 32.3%
cell viability (P12-Ichikawa [2]; [18]): 105%
cell viability (P12-Ichikawa [2]; [19]): 110%
cell viability (P12-Ichikawa [2]; [20]): 112%
cell viability (P12-Ichikawa [2]; [21]): 118%
cell viability (P12-Ichikawa [2]; [22]): 106%
cell viability (P12-Ichikawa [2]; [23]): 103%
cell viability (P12-Ichikawa [2]; [24]): 97.2%
cell viability (P12-Ichikawa [2]; [25]): 70%
cell viability (P12-Ichikawa [2]; [26]): 37.6%
cell viability (P12-Ichikawa [2]; [27]): 26.5%
cell viability (P12-Ichikawa [2]; [28]): 27.5%
cell viability (P12-Ichikawa [2]; [29]): 107%
cell viability (P12-Ichikawa [2]; [30]): 109%
cell viability (P12-Ichikawa [2]; [31]): 103%
cell viability (P12-Ichikawa [2]; [32]): 106%
cell viability (P12-Ichikawa [2]; [33]): 105%
cell viability (P12-Ichikawa [2]; [34]): 107%
cell viability (P12-Ichikawa [2]; [35]): 102%
cell viability (P12-Ichikawa [2]; [36]): 72.5%
cell viability (P12-Ichikawa [2]; [37]): 37.2%
cell viability (P12-Ichikawa [2]; [38]): 30.3%
cell viability (P12-Ichikawa [2]; [39]): 31.4%
cell viability (SEM cells [3]; [7]): 57.8%
cell viability (SEM cells [3]; [8]): 100%
cell viability (SEM cells [3]; [9]): 94.7%
cell viability (SEM cells [3]; [10]): 97.2%
cell viability (SEM cells [3]; [11]): 118%
cell viability (SEM cells [3]; [12]): 101%
cell viability (SEM cells [3]; [13]): 89.8%
cell viability (SEM cells [3]; [14]): 71.3%
cell viability (SEM cells [3]; [15]): 41%
cell viability (SEM cells [3]; [16]): 29.5%
cell viability (SEM cells [3]; [17]): 16.5%
cell viability (SEM cells [3]; [18]): 54.1%
cell viability (SEM cells [3]; [19]): 91.3%
cell viability (SEM cells [3]; [20]): 86%
cell viability (SEM cells [3]; [21]): 92.9%
cell viability (SEM cells [3]; [22]): 107%
cell viability (SEM cells [3]; [23]): 92%
cell viability (SEM cells [3]; [24]): 81.8%
cell viability (SEM cells [3]; [25]): 63.8%
cell viability (SEM cells [3]; [26]): 32.2%
cell viability (SEM cells [3]; [27]): 22.2%
cell viability (SEM cells [3]; [28]): 12.1%
cell viability (SEM cells [3]; [29]): 55.1%
cell viability (SEM cells [3]; [30]): 99.4%
cell viability (SEM cells [3]; [31]): 81%
cell viability (SEM cells [3]; [32]): 84.3%
cell viability (SEM cells [3]; [33]): 91.4%
cell viability (SEM cells [3]; [34]): 93.3%
cell viability (SEM cells [3]; [35]): 67.5%
cell viability (SEM cells [3]; [36]): 49.1%
cell viability (SEM cells [3]; [37]): 32%
cell viability (SEM cells [3]; [38]): 27.5%
cell viability (SEM cells [3]; [39]): 21.2%
AUC of viability dose-response curve (NOMO1 [4]; HPLM + 10% dialyzed FBS): 375
AUC of viability dose-response curve (NOMO1 [4]; RPMI 5 mM glucose + 10% FBS): 402
AUC of viability dose-response curve (NOMO1 [4]; [40]): 417
AUC of viability dose-response curve (P12-Ichikawa [5]; HPLM + 10% dialyzed FBS): 382
AUC of viability dose-response curve (P12-Ichikawa [5]; RPMI 5 mM glucose + 10% FBS): 368
AUC of viability dose-response curve (P12-Ichikawa [5]; [40]): 378
AUC of viability dose-response curve (SEM cells [6]; HPLM + 10% dialyzed FBS): 362
AUC of viability dose-response curve (SEM cells [6]; RPMI 5 mM glucose + 10% FBS): 327
AUC of viability dose-response curve (SEM cells [6]; [40]): 309
